Values joined by “and” are separate entries in the source; they are usually repeats but may differ in a detail not shown here. Equal entries are not always repeated.
Legend:
cells = details: Rattus norvegicus, Rat1, 1 h
[1] = Brain to blood ratio in OF1 mouse at 1 mg/kg, iv measured at 1 hr post dose by LC-MS/MS analysis; assay type: ADME, organism-based; details: brain and blood, read-out: BBR
[2] = Brain to blood ratio in OF1 mouse at 1 mg/kg, iv measured at 5 mins post dose by LC-MS/MS analysis; assay type: ADME, organism-based; details: brain and blood, read-out: BBR
[3] = target: T1, Serine/threonine-protein kinase mTOR (Homo sapiens, UniProt P42345); assay: Displacement of Alexa Fluor labelled Tracer-314 from human N-terminal GST-tagged mTOR incubated for 1 hr by TR-FRET assay
Tubulin (Homo sapiens) [4] = target: T2, Tubulin (Homo sapiens) (UniProt P68371+Q9H4B7+P0DPH7+P68366+Q13509+Q71U36+P04350+Q3ZCM7+P07437+P68363+Q9BQE3+Q6PEY2+Q13885+Q9BVA1+Q9BUF5); assay: Binding affinity to tubulin in human A2058 cells assessed as condensed DNA score at 5 uM measured after 24 hrs by DiffQuick staining based microscopic analysis; assay type: cell-based
Tubulin (Homo sapiens) [5] = target: T2, Tubulin (Homo sapiens); assay: Binding affinity to tubulin in human A2058 cells assessed as condensed DNA score at 5 uM measured after 6 hrs by DiffQuick staining based microscopic analysis; assay type: cell-based
[6] = Stability in rat liver microsomes assessed as hepatic extraction preincubated for 3 mins followed by NADPH addition and measured after 60 mins; assay type: ADME, Microsome; details: read-out: ERH
[7] = Stability in human liver microsomes assessed as hepatic extraction preincubated for 3 mins followed by NADPH addition and measured after 60 mins; assay type: ADME, Microsome; details: read-out: ERH
[8] = Volume of distribution at steady state in Sprague-Dawley rat at 3 mg/kg, po or iv measured upto 24 hrs by LC-MS/MS analysis; assay type: ADME, organism-based; details: in vivo
[9] = Oral bioavailability in Sprague-Dawley rat at 3 mg/kg measured for 0.25 to 24 hrs by LC-MS/MS analysis; assay type: ADME, organism-based; details: in vivo, time 0.25-24 hrs
[10] = Half life in Sprague-Dawley rat at 3 mg/kg, po or iv measured upto 24 hrs by LC-MS/MS analysis; assay type: ADME, organism-based; details: in vivo
[11] = AUC in Sprague-Dawley rat at 1 mg/kg, iv measured for 0.083 to 48 hrs by LC-MS/MS analysis; assay type: ADME, organism-based; design: time upper 48 hrs, dose 1 mg/kg, time lower 0.083 hrs, route iv; details: in vivo
[12] = target: T1, Serine/threonine-protein kinase mTOR; assay: Binding affinity to human N-terminal GST-tagged mTOR assessed as phosphorylated 4EBP1 by TR-FRET assay
[13] = 1-octanol, logP of the compound at pH 7.4; assay type: physicochemical
[14] = Stability in mouse liver microsomes assessed as hepatic extraction preincubated for 3 mins followed by NADPH addition and measured after 60 mins; assay type: ADME, Microsome; details: time 63 min, read-out: ERH
[15] = Drug concentration in OF1 mouse blood at 1 mg/kg, iv measured at 5 mins post dose by LC-MS/MS analysis; assay type: ADME, organism-based; details: whole blood, read-out: Ct
[16] = Drug concentration in OF1 mouse blood at 1 mg/kg, iv measured at 1 hr post dose by LC-MS/MS analysis; assay type: ADME, organism-based; details: whole blood, read-out: Ct
[17] = Drug concentration in OF1 mouse brain at 1 mg/kg, iv measured at 5 mins post dose by LC-MS/MS analysis; assay type: ADME, organism-based; details: in vivo
[18] = Drug concentration in OF1 mouse brain at 1 mg/kg, iv measured at 1 hr post dose by LC-MS/MS analysis; assay type: ADME, organism-based; details: in vivo

SMILES: N#Cc1cc(N)ncc1-c1cc(N2CCOC(CCO)C2)nc(N2CCOCC2)n1 (racemic)
- IC50 (cells): 2520 nM
- Kp at 1 h [1]: 0.12
- Kp at 5 min [2]: 0.2

SMILES: C[C@H]1[C@@H](CO)OC(=O)N1c1nc(-c2cnc(N)nc2C(F)(F)F)cc(N2CCOCC2)n1
- IC50 (cells): 30 nM
- IC50 [3]: 1720 nM

SMILES: CS(=O)(=O)N1CCN(Cc2cc3nc(-c4cccc5[nH]ncc45)nc(N4CCOCC4)c3s2)CC1 [PICTILISIB]
- IC50 (cells): 44 nM
- Activity (Tubulin (Homo sapiens) [4]): < 2%
- Activity (Tubulin (Homo sapiens) [5]): < 2%

SMILES: Nc1cc(C(F)(F)F)c(-c2cc(N3CCOC(c4ccccc4)C3)nc(N3CCOCC3)n2)cn1 (racemic)
- IC50 (cells): 2770 nM
- Kp at 1 h [1]: 3.73
- Kp at 5 min [2]: 4.89

SMILES: C[C@@H]1OC(=O)N(c2nc(-c3cnc(N)nc3C(F)(F)F)cc(N3CCOCC3)n2)[C@H]1CO
- IC50 (cells): 37 nM
- hepatic extraction ratio at 1 h [6]: 0.49
- IC50 [3]: 2580 nM
- hepatic extraction ratio at 1 h [7]: 0.78
- Vdss [8]: 3.9 L/kg
- bioavailability [9]: 23%
- half-life [10]: 5.2 h
- AUC [11]: 0.708 µM·h

SMILES: Nc1ncc(-c2cc(N3CCOCC3)nc(N3C[C@@H](CO)OC3=O)n2)c(C(F)(F)F)n1
- IC50 (cells): 101 nM
- IC50 [3]: > 9100 nM

SMILES: C[C@H](O)[C@@H]1COC(=O)N1c1nc(-c2cnc(N)nc2C(F)(F)F)cc(N2CCOCC2)n1
- IC50 (cells): 83 nM
- IC50 [3]: 1340 nM

SMILES: COc1ccc2c(c1)OCCN2c1cc(-c2cnc(N)nc2)nc(N2CCOCC2)n1
- IC50 (cells): 239 nM
- Activity (Tubulin (Homo sapiens) [4]): 6%
- Activity (Tubulin (Homo sapiens) [5]): > 12%
- Kp at 1 h [1]: 1.91
- IC50 [12]: > 9100 nM
- Kp at 5 min [2]: 3.23

SMILES: Nc1cc(C(F)(F)F)c(-c2cc(N3CCN(c4ccccc4)C3=O)nc(N3CCOCC3)n2)cn1
- IC50 (cells): 1460 nM
- IC50 [3]: 6200 nM
- Activity (Tubulin (Homo sapiens) [4]): < 2%
- Activity (Tubulin (Homo sapiens) [5]): < 2%

SMILES: Nc1ncc(-c2cc(N3CCOCC3)nc(N3CCOCC3)n2)c(C(F)(F)F)n1
- IC50 (cells): 191 nM
- IC50 [3]: 2070 nM
- Activity (Tubulin (Homo sapiens) [4]): > 12%
- Activity (Tubulin (Homo sapiens) [5]): > 12%
- IC50 [12]: 6310 nM

SMILES: C[C@H]1OC(=O)N(c2nc(-c3cnc(N)nc3C(F)(F)F)cc(N3CCOCC3)n2)[C@H]1CC#N
- IC50 (cells): 100 nM
- IC50 [3]: 3940 nM

SMILES: Nc1cc(C(F)(F)F)c(-c2cc(N3CCCC3=O)nc(N3CCOCC3)n2)cn1
- IC50 (cells): 267 nM
- IC50 [3]: 4970 nM
- logD [13]: 2.1

SMILES: Nc1cc(C(F)(F)F)c(-c2cc(NC(CO)Cc3ccccc3)nc(N3CCOCC3)n2)cn1 (racemic)
- IC50 (cells): 9020 nM
- Kp at 1 h [1]: 0.93
- Kp at 5 min [2]: 1.2

SMILES: Nc1ncc(-c2cc(N3CCOCC3)nc(N3CCOCC3)n2)c(=O)[nH]1
- IC50 (cells): 481 nM
- Activity (Tubulin (Homo sapiens) [4]): < 2%
- Activity (Tubulin (Homo sapiens) [5]): < 2%
- IC50 [12]: 440 nM

SMILES: Nc1ncc(-c2cc(N3CCOCC3)nc(N3C(=O)OC[C@H]3CO)n2)c(C(F)(F)F)n1
- IC50 (cells): 180 nM
- IC50 [3]: 5940 nM

SMILES: C[C@H]1COC(=O)N1c1nc(-c2cnc(N)nc2C(F)(F)F)cc(N2CCOCC2)n1
- IC50 (cells): 28 nM
- hepatic extraction ratio at 1 h [14]: 0.27
- hepatic extraction ratio at 1 h [6]: 0.67
- IC50 [3]: 2880 nM
- hepatic extraction ratio at 1 h [7]: 0.54
- Vdss [8]: 4.4 L/kg
- Kp at 1 h [1]: 0.9
- bioavailability [9]: 46%
- concentration at 5 min [15]: 1640 nM
- half-life [10]: 1.2 h
- AUC [11]: 0.762 µM·h
- concentration at 1 h [16]: 616 nM
- Ct [17]: 1813 pmol/g
- Kp at 5 min [2]: 1.11
- Ct [18]: 553 pmol/g

SMILES: C[C@H]1OC(=O)N(c2nc(-c3cnc(N)nc3C(F)(F)F)cc(N3CCOCC3)n2)[C@H]1CN1CC[S+]([O-])CC1
- IC50 (cells): > 10000 nM

SMILES: Nc1cc(C(F)(F)F)c(-c2cc(N3CCOC3=O)nc(N3CCOCC3)n2)cn1
- IC50 (cells): 1070 nM
- IC50 [3]: 6800 nM
- logD [13]: 2.7

SMILES: Nc1ncc(-c2cc(N3CCOCC3)nc(N3C[C@H](CO)OC3=O)n2)c(C(F)(F)F)n1
- IC50 (cells): 111 nM
- IC50 [3]: 2180 nM

SMILES: C[C@]1(CO)COC(=O)N1c1nc(-c2cnc(N)nc2C(F)(F)F)cc(N2CCOCC2)n1
- IC50 (cells): 172 nM
- IC50 [3]: 3610 nM

SMILES: Nc1ncc(-c2cc(N3CCOCC3)nc(N3C(=O)OC[C@@H]3CO)n2)c(C(F)(F)F)n1
- IC50 (cells): 63 nM
- IC50 [3]: 3880 nM

SMILES: CC1(C)OC(=O)N(c2nc(-c3cnc(N)nc3C(F)(F)F)cc(N3CCOCC3)n2)[C@H]1CO
- IC50 (cells): 81 nM

SMILES: Nc1ncc(-c2cc(N3CCOCC3)nc(N3C(=O)O[C@@H]4COC[C@@H]43)n2)c(C(F)(F)F)n1
- IC50 (cells): 61 nM
- IC50 [3]: 2000 nM

SMILES: Nc1ncc(-c2cc(N3CCOC3=O)nc(N3CCOCC3)n2)c(C(F)(F)F)n1
- IC50 (cells): 137 nM
- IC50 [3]: > 9100 nM

SMILES: Nc1cc(C(F)(F)F)c(-c2cc(N3CCOCC3)nc(N3CCOCC3)c2)cn1
- IC50 (cells): 2830 nM
- Activity (Tubulin (Homo sapiens) [4]): > 12%
- Activity (Tubulin (Homo sapiens) [5]): 6%
- IC50 [12]: > 9100 nM

SMILES: Nc1cc(C(F)(F)F)c(-c2cc(N3CCCCC3=O)nc(N3CCOCC3)n2)cn1
- IC50 (cells): 1040 nM
- IC50 [3]: 5060 nM
- Activity (Tubulin (Homo sapiens) [4]): < 2%
- Activity (Tubulin (Homo sapiens) [5]): < 2%

SMILES: C[C@H]1COC(=O)N1c1nc(-c2cnc(N)cc2C(F)(F)F)cc(N2CCOCC2)n1
- IC50 (cells): 1760 nM
- Kp at 1 h [1]: 0.11
- Kp at 5 min [2]: 0.11

SMILES: C[C@H]1[C@H](CO)OC(=O)N1c1nc(-c2cnc(N)nc2C(F)(F)F)cc(N2CCOCC2)n1
- IC50 (cells): 63 nM
- IC50 [3]: 5110 nM

SMILES: Nc1ncc(-c2cc(N3CCCOC3=O)nc(N3CCOCC3)n2)c(C(F)(F)F)n1
- IC50 (cells): 152 nM

SMILES: Nc1cc(C(F)(F)F)c(-c2cc(N3CCS(=O)(=O)CC3)nc(N3CCOCC3)n2)cn1
- IC50 (cells): 5220 nM
- IC50 [3]: 9100 nM and > 9100 nM
- Activity (Tubulin (Homo sapiens) [4]): < 2%
- Activity (Tubulin (Homo sapiens) [5]): < 2%
- IC50 [12]: > 9100 nM

SMILES: Nc1cc(C(F)(F)F)c(-c2cc(N3CCNC3=O)nc(N3CCOCC3)n2)cn1
- IC50 (cells): 431 nM
- logD [13]: 2.6

SMILES: CNC(=O)N(CCO)c1cc(-c2cnc(N)cc2C(F)(F)F)nc(N2CCOCC2)n1
- IC50 (cells): 3660 nM
- Kp at 1 h [1]: 0.12
- Kp at 5 min [2]: 0.23

SMILES: Cn1c(=O)n(-c2ccc(C(C)(C)C#N)cc2)c2c3cc(-c4cnc5ccccc5c4)ccc3ncc21 [DACTOLISIB]
- IC50 (cells): 14 nM
- Activity (Tubulin (Homo sapiens) [4]): < 2%
- Activity (Tubulin (Homo sapiens) [5]): < 2%

SMILES: CNC(=O)N(C)c1cc(-c2cnc(N)cc2C(F)(F)F)nc(N2CCOCC2)n1
- IC50 (cells): 1300 nM
- Kp at 1 h [1]: 0.86
- Kp at 5 min [2]: 1.1

SMILES: Nc1cc(C(F)(F)F)c(-c2cc(N3CCOC[C@H]3CO)nc(N3CCOCC3)n2)cn1
- IC50 (cells): 8020 nM
- Kp at 1 h [1]: 0.21
- Kp at 5 min [2]: 0.31

— ChEMBL document CHEMBL5137017, “Identification of NVP-CLR457 as an Orally Bioavailable Non-CNS-Penetrant pan-Class IA Phosphoinositol-3-Kinase Inhibitor” (J Med Chem, 2022)
